Literature values as cited in patent US4722394A, “Determining residual oil saturation by radioactively analyzing injected CO2 and base-generating tracer-providing solution” (Shell Oil Company, priority 1986, dated 1988).

Structure (SMILES): O=C=O [CO2, carbon dioxide]
- distribution coefficient, Ki (ratio of concentration of tracer in the oil phase to that in the water phase): about 2
